Measured values reported in US20230295182A1, “SPIRO DERIVATIVES OF ALPHA-D-GALACTOPYRANOSIDES” (Idorsia Pharmaceuticals Ltd, priority 2020, published 2023).

Tests used:
human Gal-3 (hGal-3) = human Gal-3 (hGal-3) (Homo sapiens (Human), UniProt P17931); assay: Competitive binding assay: biotinylated hGal-3 to microplate-adsorbed asialofetuin (ASF); details: Activity on hGal-3; binding to ASF-coated plates, 3 hours at 4° C.; mean values
Protocol: Evaluation of Compound Inhibitory Activity (IC50)
The inhibitory activity of compounds is determined in competitive binding assays. This spectrophotometric assay measures the binding of biotinylated human Gal-3 (hGal-3) or human Gal-1 (hGal-1), respectively, to a microplate-adsorbed glycoprotein, asialofetuin (ASF) (Proc Natl Acad Sci USA. 2013 Mar. 26; 110(13):5052-7.). Alternatively, and preferably, a human Gal-1 version in which all six cysteines are substituted by serines may be used.
Briefly, compounds are serially diluted in DMSO (working dilutions). ASF-coated 384 well plates are supplemented with 22.8 μL/well of biotinylated hGal-3 or hGal-1 in assay buffer (i.e. 300-1000 ng/mL biotinylated hGal-3 or hGal-1) to which 1.2 µL of compound working dilutions are added and mixed.
Plates are incubated for 3 hours at 4° C., then washed with cold assay buffer (3×50 uL), incubated for 1 hour with 25 μL/well of a streptavidin-peroxidase solution (diluted in assay buffer to 80 ng/mL) at 4° C., followed by further washing steps with assay buffer (3×50 uL). Finally, 25 µL/well of ABTS substrate is added.
The calculated IC50 values may fluctuate depending on the daily assay performance. Fluctuations of this kind are known to those skilled in the art. IC50 values from several measurements are given as mean values.

human Gal-1 (hGal-1) = human Gal-1 (hGal-1) (Homo sapiens, UniProt P09382); assay: Competitive binding assay: biotinylated hGal-1 to microplate-adsorbed asialofetuin (ASF); details: Activities on hGal-1; binding to ASF-coated plates, 3 hours at 4° C.; mean values; read-out: Gal-1 IC50
Protocol: Evaluation of Compound Inhibitory Activity (IC50) The inhibitory activity of compounds is determined in competitive binding assays. […] Alternatively, and preferably, a human Gal-1 version in which all six cysteines are substituted by serines may be used. Briefly, compounds are serially diluted in DMSO (working dilutions). […] Plates are incubated for 3 hours at 4° C., then washed with cold assay buffer (3×50 uL), incubated for 1 hour with 25 μL/well of a streptavidin-peroxidase solution (diluted in assay buffer to 80 ng/mL) at 4° C., followed by further washing steps with assay buffer (3×50 uL). Finally, 25 µL/well of ABTS substrate is added. […] The calculated IC50 values may fluctuate depending on the daily assay performance. Fluctuations of this kind are known to those skilled in the art. IC50 values from several measurements are given as mean values.

Chain of human Gal-1 (hGal-1) (P09382 2-135 limits assumed): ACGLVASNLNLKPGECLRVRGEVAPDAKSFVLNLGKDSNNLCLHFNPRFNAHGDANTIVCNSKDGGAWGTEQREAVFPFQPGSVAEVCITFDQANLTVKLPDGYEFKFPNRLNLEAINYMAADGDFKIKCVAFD
Chain of human Gal-3 (hGal-3) (P17931 whole entry): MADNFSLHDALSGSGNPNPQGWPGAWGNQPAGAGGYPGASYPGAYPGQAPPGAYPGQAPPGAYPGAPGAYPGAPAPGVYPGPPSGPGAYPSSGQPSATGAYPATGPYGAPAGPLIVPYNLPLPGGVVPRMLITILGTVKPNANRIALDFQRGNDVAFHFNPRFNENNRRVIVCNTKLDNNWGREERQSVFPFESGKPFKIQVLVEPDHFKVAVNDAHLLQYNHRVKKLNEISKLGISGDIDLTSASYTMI

Row | Compound | IC50 (human Gal-3 (hGal-3)) [nM] | IC50 (human Gal-1 (hGal-1)) [nM]
1 | CO[C@@H]1[C@@H](n2cc(-c3ccc(C)c(F)c3F)nn2)[C@@H](O)[C@@H](CO)O[C@@H]1CC1=NOC2(CCCN(C(=O)OC(C)(C)C)CC2)C1 (mixture of isomers) [Example 1.75, tert-butyl (RS)-3-(((2R,3R,4S,5R,6R)-4-(4-(2,3-difluoro-4-methylphenyl)-1H-1,2,3-triazol-1-yl)-5-hydroxy-6-(hydroxymethyl)-3-methoxytetrahydro-2H-pyran-2-yl)methyl)-1-oxa-2,8-diazaspiro[4.6]undec-2-ene-8-carboxylate] | 160 | 8200
2 | CO[C@@H]1[C@@H](n2cc(-c3ccc(C)c(F)c3F)nn2)[C@@H](O)[C@@H](CO)O[C@@H]1CC1=NOC2(CCC(=O)N(C)CC2)C1 (mixture of isomers) [Example 1.77, (RS)-3-(((2R,3R,4S,5R,6R)-4-(4-(2,3-difluoro-4-methylphenyl)-1H-1,2,3-triazol-1-yl)-5-hydroxy-6-(hydroxymethyl)-3-methoxytetrahydro-2H-pyran-2-yl)methyl)-8-methyl-1-oxa-2,8-diazaspiro[4.6]undec-2-en-9-one] | 100 | 4800
3 | CO[C@@H]1[C@@H](n2cc(-c3ccc(Cl)c(F)c3F)nn2)[C@@H](O)[C@@H](CO)O[C@@H]1CC1=NOC2(CCN(C(=O)OC(C)(C)C)C2)C1 (mixture of isomers) [Example 1.79, tert-butyl (RS)-3-(((2R,3R,4S,5R,6R)-4-(4-(4-chloro-2,3-difluorophenyl)-1H-1,2,3-triazol-1-yl)-5-hydroxy-6-(hydroxymethyl)-3-methoxytetrahydro-2H-pyran-2-yl)methyl)-1-oxa-2,7-diazaspiro[4.4]non-2-ene-7-carboxylate] | 490 | 4800
4 | CO[C@@H]1[C@@H](n2cc(-c3ccc(Cl)c(F)c3F)nn2)[C@@H](O)[C@@H](CO)O[C@@H]1CC1=NO[C@]2(CC[C@H](NC(=O)OC(C)(C)C)CC2)C1 [Example 1.45, tert-butyl ((5r,8R)-3-(((2R,3R,4S,5R,6R)-4-(4-(4-chloro-2,3-difluorophenyl)-1H-1,2,3-triazol-1-yl)-5-hydroxy-6-(hydroxymethyl)-3-methoxytetrahydro-2H-pyran-2-yl)methyl)-1-oxa-2-azaspiro[4.5]dec-2-en-8-yl)carbamate] | 10 | 800
5 | CO[C@@H]1[C@@H](n2cc(-c3ccc(C)c(F)c3F)nn2)[C@@H](O)[C@@H](CO)O[C@@H]1CC1=NO[C@]2(CC[C@H](NC(=O)OC(C)(C)C)CC2)C1 [Example 1.43, tert-butyl ((5r,8R)-3-(((2R,3R,4S,5R,6R)-4-(4-(2,3-difluoro-4-methylphenyl)-1H-1,2,3-triazol-1-yl)-5-hydroxy-6-(hydroxymethyl)-3-methoxytetrahydro-2H-pyran-2-yl)methyl)-1-oxa-2-azaspiro[4.5]dec-2-en-8-yl)carbamate] | 15 | 1240
6 | CO[C@@H]1[C@@H](n2cc(-c3ccc(C)c(F)c3F)nn2)[C@@H](O)[C@@H](CO)O[C@@H]1CC1=NOC2(CCC(C(C)(C)O)CC2)C1 (stereo partly drawn) [Example 1.54, (2R,3R,4S,5R,6R)-4-(4-(2,3-difluoro-4-methylphenyl)-1H-1,2,3-triazol-1-yl)-2-(hydroxymethyl)-6-((8-(2-hydroxypropan-2-yl)-1-oxa-2-azaspiro[4.5]dec-2-en-3-yl)methyl)-5-methoxytetrahydro-2H-pyran-3-ol] | 200 | 5400
7 | CO[C@@H]1[C@@H](n2cc(-c3cc(F)c(F)c(F)c3)nn2)[C@@H](O)[C@@H](CO)O[C@@H]1CC1=NOC2(CCC(F)(F)CC2)C1 [Example 1.24, (2R,3R,4S,5R,6R)-6-((8,8-difluoro-1-oxa-2-azaspiro[4.5]dec-2-en-3-yl)methyl)-2-(hydroxymethyl)-5-methoxy-4-(4-(3,4,5-trifluorophenyl)-1H-1,2,3-triazol-1-yl)tetrahydro-2H-pyran-3-ol] | 450 | 4900
8 | CO[C@@H]1[C@@H](n2cc(-c3cc(F)c(F)c(F)c3)nn2)[C@@H](O)[C@@H](CO)O[C@@H]1CC1=NO[C@]2(CC[C@H](C)CC2)C1 [Example 1.33, (2R,3R,4S,5R,6R)-2-(hydroxymethyl)-5-methoxy-6-(((5r,8R)-8-methyl-1-oxa-2-azaspiro[4.5]dec-2-en-3-yl)methyl)-4-(4-(3,4,5-trifluorophenyl)-1H-1,2,3-triazol-1-yl)tetrahydro-2H-pyran-3-ol] | 330 | 3700
9 | OC[C@H]1O[C@H](CC2=NOC3(CCCCC3)C2)[C@H](OCC(F)F)[C@@H](n2cc(-c3cc(F)c(F)c(F)c3)nn2)[C@H]1O [Example 1.67, (2R,3R,4S,5R,6R)-6-((1-oxa-2-azaspiro[4.5]dec-2-en-3-yl)methyl)-5-(2,2-difluoroethoxy)-2-(hydroxymethyl)-4-(4-(3,4,5-trifluorophenyl)-1H-1,2,3-triazol-1-yl)tetrahydro-2H-pyran-3-ol] | – | 2900
10 | CO[C@@H]1[C@@H](n2cc(-c3cc(F)c(F)c(F)c3)nn2)[C@@H](O)[C@@H](CO)O[C@@H]1CC1=NOC2(CCC(C)CC2)C1 (stereo partly drawn) [Example 1.30, (2R,3R,4S,5R,6R)-2-(hydroxymethyl)-5-methoxy-6-((8-methyl-1-oxa-2-azaspiro[4.5]dec-2-en-3-yl)methyl)-4-(4-(3,4,5-trifluorophenyl)-1H-1,2,3-triazol-1-yl)tetrahydro-2H-pyran-3-ol] | – | 3100

Now from value to compound:

Row | IC50 (human Gal-3 (hGal-3)) [nM] | IC50 (human Gal-1 (hGal-1)) [nM] | Compound
11 | 36 | 1400 | CO[C@@H]1[C@@H](n2cc(-c3ccc(C)c(F)c3F)nn2)[C@@H](O)[C@@H](CO)O[C@@H]1CN1CC2(CCCCC2)OC1=O [Example 3.02, 3-(((2R,3R,4S,5R,6R)-4-(4-(2,3-difluoro-4-methylphenyl)-1H-1,2,3-triazol-1-yl)-5-hydroxy-6-(hydroxymethyl)-3-methoxytetrahydro-2H-pyran-2-yl)methyl)-1-oxa-3-azaspiro[4.5]decan-2-one]
12 | 190 | 2000 | CO[C@@H]1[C@@H](n2cc(-c3cc(F)c(F)c(F)c3)nn2)[C@@H](O)[C@@H](CO)O[C@@H]1CC1=NO[C@]2(CC[C@H](O)CC2)C1 [Example 2.03, (5r,8R)-3-(((2R,3R,4S,5R,6R)-5-hydroxy-6-(hydroxymethyl)-3-methoxy-4-(4-(3,4,5-trifluorophenyl)-1H-1,2,3-triazol-1-yl)tetrahydro-2H-pyran-2-yl)methyl)-1-oxa-2-azaspiro[4.5]dec-2-en-8-ol]
13 | 17 | 640 | CCOC(=O)N[C@H]1CC[C@]2(CC1)CC(C[C@H]1O[C@H](CO)[C@H](O)[C@H](n3cc(-c4ccc(C)c(F)c4F)nn3)[C@H]1OC)=NO2 [Example 2.09, ethyl ((5r,8R)-3-(((2R,3R,4S,5R,6R)-4-(4-(2,3-difluoro-4-methylphenyl)-1H-1,2,3-triazol-1-yl)-5-hydroxy-6-(hydroxymethyl)-3-methoxytetrahydro-2H-pyran-2-yl)methyl)-1-oxa-2-azaspiro[4.5]dec-2-en-8-yl)carbamate]
14 | 37 | 3700 | Cc1ccc(-c2cn([C@H]3[C@@H](O)[C@@H](CO)O[C@H](CC4=NOC5(CCCCC5)C4)[C@@H]3OCC(=O)O)nn2)c(F)c1F [Example 2.25, 2-(((2R,3R,4S,5R,6R)-2-((1-oxa-2-azaspiro[4.5]dec-2-en-3-yl)methyl)-4-(4-(2,3-difluoro-4-methylphenyl)-1H-1,2,3-triazol-1-yl)-5-hydroxy-6-(hydroxymethyl)tetrahydro-2H-pyran-3-yl)oxy)acetic acid]
15 | 61 | 810 | CO[C@@H]1[C@@H](n2cc(-c3cc(F)c(F)c(F)c3)nn2)[C@@H](O)[C@@H](CO)O[C@@H]1CC1=NO[C@]2(CC[C@H](NC(C)=O)CC2)C1 [Example 2.04, N-((5r,8R)-3-(((2R,3R,4S,5R,6R)-5-hydroxy-6-(hydroxymethyl)-3-methoxy-4-(4-(3,4,5-trifluorophenyl)-1H-1,2,3-triazol-1-yl)tetrahydro-2H-pyran-2-yl)methyl)-1-oxa-2-azaspiro[4.5]dec-2-en-8-yl)acetamide]
16 | – | 1300 | CO[C@@H]1[C@@H](n2cc(-c3ccc(C)c(F)c3F)nn2)[C@@H](O)[C@@H](CO)O[C@@H]1CN1CC2(CCCCC2)NC1=O [Example 4.01, 3-(((2R,3R,4S,5R,6R)-4-(4-(2,3-difluoro-4-methylphenyl)-1H-1,2,3-triazol-1-yl)-5-hydroxy-6-(hydroxymethyl)-3-methoxytetrahydro-2H-pyran-2-yl)methyl)-1,3-diazaspiro[4.5]decan-2-one]
